What all share (type): biochemical
Test [1] addresses T1, luciferase (firefly) (Photinus pyralis, UniProt P08659). The experiment in a line: Luminescence characteristics with firefly luciferase (Example 3). As to conditions: for relative intensity: calculated on the basis of the intensity obtained for aminoluciferin; for λmax(nm): luminescence peak, HEPES pH 7.7, ATP, Mg, CoA; for λmax(nm) / initial intensity: 12 μmol/L substrate, 20 μg/mL luciferase; for initial intensity: luminescence, HEPES pH 7.7; for peak luminescence wavelength shift to longer wavelength side compared with luciferin: versus luciferin. As for the experimental part:
The measurement was performed by using Fluorescence Spectrophotometer F-4500 (Hitachi).

Test [2] addresses T1, luciferase (firefly). Nature of the test: Measurement of luminescence after reaction with luciferase (Example 5, FIG. 2). As to conditions: 12 μmol/L substrate, 40 μg/mL luciferase. The protocol:
Luminescence spectra of Compounds 19 and 20 were measured.

The target in test [3] is T1, luciferase (firefly). The experiment in a line: HPLC analysis of luciferase reaction product with or without ATP (Example 6, FIG. 3). To be noted: system added with ATP vs without ATP. As for the experimental part: For 6-(4-aminophenethyl)-aminoluciferin (Compound 21), the enzymatic reaction was also performed in a system without ATP (all the other conditions were the same as Example 5), along with the aforementioned enzymatic reaction in Example 5. After these two enzymatic reactions, each enzymatic reaction mixture was collected and filtered by using a centrifugal separator to remove the enzyme. The solvent was evaporated by lyophilization to obtain a residue after the enzymatic reaction. A small amount of the residue was dissolved in purified water and methanol, then analyzed by HPLC. The results are shown in FIG. 3. • Analysis conditions • Elution solvent: A=H2O/0.1% trifluoroacetic acid, B=80% acetonitrile/20% • water/0.1% trifluoroacetic acid, A/B=80/20 to 20/80 (20 minutes) • Detection: UV-vis (400 nm) • Column: ODS-3, 4.6×250 mm • Flow rate: 1 mL/min

T1 sequence (P08659 whole entry, species assumed): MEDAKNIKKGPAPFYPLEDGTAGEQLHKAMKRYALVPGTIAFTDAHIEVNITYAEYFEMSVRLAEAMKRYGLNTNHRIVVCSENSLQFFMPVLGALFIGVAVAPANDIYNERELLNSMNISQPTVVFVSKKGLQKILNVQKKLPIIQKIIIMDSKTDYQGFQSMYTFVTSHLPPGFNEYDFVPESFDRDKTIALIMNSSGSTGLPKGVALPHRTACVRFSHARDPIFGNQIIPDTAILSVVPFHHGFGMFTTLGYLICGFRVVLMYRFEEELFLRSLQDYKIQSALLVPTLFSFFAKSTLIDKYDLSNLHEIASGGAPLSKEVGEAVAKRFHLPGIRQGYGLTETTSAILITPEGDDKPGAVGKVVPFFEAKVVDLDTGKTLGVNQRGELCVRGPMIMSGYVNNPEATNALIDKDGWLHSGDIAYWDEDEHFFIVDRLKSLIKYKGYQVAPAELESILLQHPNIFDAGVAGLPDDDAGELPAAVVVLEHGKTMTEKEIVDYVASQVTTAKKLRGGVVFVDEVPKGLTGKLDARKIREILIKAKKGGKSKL

With `CNc1ccc2nc(C3=NC(C(=O)O)CS3)sc2c1` (stereo not shown) [Compound 10, N-methylaminoluciferin], on luciferase (firefly) [1], the relative intensity was 66.5, the “λmax(nm)” value came out at 624 nm, the initial intensity amounted to 1360 and the “peak luminescence wavelength shift to longer wavelength side compared with luciferin” value (“peak luminescence wavelength shift” below) amounted to 49 nm.
With `CN(C)c1ccc2nc(C3=NC(C(=O)O)CS3)sc2c1` (stereo not shown) [Compound 11, N,N-dimethylaminoluciferin], on luciferase (firefly) [1], the relative intensity is reported as 44.1, the “λmax(nm)” value is 641 nm, the initial intensity is 901 and the “peak luminescence wavelength shift” value was 66 nm.
For `O=C(O)C1CSC(c2nc3ccc(NCc4ccccc4)cc3s2)=N1` (stereo not shown) [Compound 12, N-benzylaminoluciferin], on luciferase (firefly) [1], the relative intensity was 5.2, the “λmax(nm)” value worked out at 623 nm, the initial intensity is 106 and the “peak luminescence wavelength shift” value is on record as 48 nm.
Take `O=C(O)C1CSC(c2nc3ccc(NCCc4ccccc4)cc3s2)=N1` (stereo not shown) [Compound 13, N-phenethylaminoaminoluciferin]: on luciferase (firefly) [1], the relative intensity is 8.6, the “λmax(nm)” value was found to be 611 nm and the “peak luminescence wavelength shift” value worked out at 36 nm. The compound further registered an initial intensity on luciferase (firefly) [1] (listed as N-phenethylaminoluciferin) of 175.
`O=C(O)C1CSC(c2nc3ccc(NCCCc4ccccc4)cc3s2)=N1` (stereo not shown) [Compound 14, N-phenylpropylaminoluciferin]: on luciferase (firefly) [1], the relative intensity is on record as 48.0, the “λmax(nm)” value was 611 nm, the initial intensity was found to be 980 and the “peak luminescence wavelength shift” value is 36 nm.
On to `O=C(Nc1ccc(CCNc2ccc3nc(C4=NC(C(=O)O)CS4)sc3c2)cc1)OCc1ccccc1` (stereo not shown) [Compound 19, 6-(4′-benzyloxycarbonylamidophenethyl)-aminoluciferin], for which the luminescent property result at luciferase (firefly) [2] is “luminescence was observed”. The luminescence peak entry at luciferase (firefly) [2] (HEPES pH 7.7) was “about 610 nm”.
Regarding `Nc1ccc(CCNc2ccc3nc(C4=N[C@@H](C(=O)O)CS4)sc3c2)cc1` [Compound 21, 6-(4′-aminophenethyl)-aminoluciferin], on luciferase (firefly) [2], the luminescent property entry is “completely lost the luminescent property”. The “reaction as luciferase substrate (elution peak of compound after enzymatic reaction)” value on luciferase (firefly) [3] is reported as “reacted as a luciferase substrate”.
In the case of `Nc1ccc2nc(C3=N[C@@H](C(=O)O)CS3)sc2c1` [aminoluciferin, reference compound], on luciferase (firefly) [1], the relative intensity was 100.0, the “λmax(nm)” value stood at 609 nm, the initial intensity is reported as 2044 and the “peak luminescence wavelength shift” value is listed as 34 nm.
